According to paper PMC12749166, “Fragment-based drug design of a bacterial kinase inhibitor capable of increasing the antibiotic sensitivity of clinical isolates” (Communications Chemistry, 2025):

Tests used:
APH(2”)-IVa [1] = biological target: T1, APH(2”)-IVa (Enterococcus casseliflavus, UniProt O68183); test: biochemical
Target sequence in this assay (O68183 1-301): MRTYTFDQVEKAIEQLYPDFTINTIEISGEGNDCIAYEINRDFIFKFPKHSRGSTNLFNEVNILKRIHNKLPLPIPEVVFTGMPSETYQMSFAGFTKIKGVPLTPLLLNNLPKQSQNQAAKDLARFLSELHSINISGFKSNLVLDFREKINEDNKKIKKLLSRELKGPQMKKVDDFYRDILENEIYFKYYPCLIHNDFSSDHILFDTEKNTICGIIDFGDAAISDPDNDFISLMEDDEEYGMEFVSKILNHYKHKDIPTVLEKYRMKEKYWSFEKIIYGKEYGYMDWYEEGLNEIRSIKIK

P. aeruginosa C0307 = test: Bacterial growth kinetics over 24 h; format: cell-based
APH(3’)-IIb [2] = biological target: T2, APH(3’)-IIb (Pseudomonas aeruginosa, UniProt Q9HWR2, M95L); test: biochemical
T2 sequence (Q9HWR2 1-268 M95L): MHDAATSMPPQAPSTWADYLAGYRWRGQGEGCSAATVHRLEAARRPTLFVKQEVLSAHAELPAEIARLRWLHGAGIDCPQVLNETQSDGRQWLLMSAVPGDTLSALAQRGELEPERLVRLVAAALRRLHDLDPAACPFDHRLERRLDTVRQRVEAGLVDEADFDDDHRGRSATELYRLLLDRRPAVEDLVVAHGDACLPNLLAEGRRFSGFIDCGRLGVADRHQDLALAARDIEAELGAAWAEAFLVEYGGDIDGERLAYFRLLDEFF
Description: (§1) The reaction mixture consists of the APH and its substrates, as well as a potential inhibitor for inhibition measurements. Reactions were initiated by adding the ATP solution supplemented or not with the inhibitor, in a thermostated beaker containing the APH. […] The reaction was stopped at several time points by adding 80 µL of the enzymatic reaction mixture from the beaker to 40 µL of 10% perchloric acid (PCA) in an Eppendorf tube. Samples were then centrifuged for 30 min at 12750 rpm and 8 °C. 100 µL of the supernatant was then mixed with 900 µL of mobile phase (250 mM NaH2PO4, 50% Acetonitrile, pH 5.5) supplemented with KOH to readjust the pH to 5.5 before injection. […] 100 µL of samples were injected on a SAX PartiSphere column (AIT France) at a flow rate of 1 mL min^−1. ATP and ADP peaks were integrated, and the area under the peaks was calculated using OpenLab CDS software (v. ChemStation, Agilent). The kss values were then measured using linear regression in GraFit software and IC50 determined by fitting with a hyperbola the percentage of inhibition as a function of inhibitor concentration. The standard error of the IC50 value was determined in the GraFit software based on the fitting of the experimental data.

APH(3’)-IIb [3] = biological target: T2, APH(3’)-IIb; test: biochemical; remark: listed apart in the source
Description: Plates were placed in a Clariostar plate reader. […] The initial rate constants (kss) were then measured using a linear regression of the absorbance as a function of time using GraFit software (v. 7.0.3, Erithacus software). Inhibition constants were determined by global fittings of the dependences of kss as a function of ATP and inhibitor concentrations, using a competitive inhibition equation and GraFit software. The standard error of the Ki value was determined in the GraFit software based on the global fitting of four experimental series.

APH(2”)-IVa [4] = biological target: T1, APH(2”)-IVa; test: IC50 by HPLC quantification of ATP and ADP; format: biochemical, E. casseliflavus
Target sequence in this assay (O68183 entry or part of it): as the sequence (O68183 1-301) above
Description: as §1

APH(2”)-IVa [5] = biological target: T1, APH(2”)-IVa; test: biochemical; format: binding
Description: ITC experiments were performed on three different machines: a MicroCal VP-ITC (GE Healthcare), a MicroCal PEAQ-ITC (Malvern), or a MicroCal iTC200 (Malvern). The architecture and principles are similar for the three different systems. The experiments were carried out in Buffer HEPES at 25 °C. Titrations consisted of twenty injections of 1.5 µL inhibitors, every 120 seconds, into the measuring cell using the injection syringe rotating at 750 rpm. The data were analyzed using the MicroCal PEAQ-ITC software (v. 1.52, Malvern) using the single-site binding model to fit the raw data. The standard error of the Kd value was determined from measurements made on distinct samples (n indicated in the text).
Target sequence in this assay (O68183 1-301): as the sequence (O68183 1-301) above

APH(3’)-Ic = format: biochemical, A. baumannii; settings: 100 µM of 83

In the case of `Clc1cnc2[nH]ccc2c1-c1ccn[nH]1` [Compound 83], the inhibition at 100 µM (APH(2”)-IVa [1]; 100 µM of 83) is reported as 95%, the Ki (APH(2”)-IVa [1]; Ki (µM), inhibition constant, ATP-competitive, 0-2 mM MgATP, 100 µM kanamycin A, global fitting) is reported as 0.39 ± 0.04 µM and the “Delay of the onset of growth” value (P. aeruginosa C0307; 8 µg mL^−1 kanamycin A, 83 at 500 µM) is reported as “around 6 h”. The Extension of latency (P. aeruginosa C0307; 16 µg mL^−1 kanamycin A, 500 µM 83) was 12 h, the Growth (P. aeruginosa C0307; 32 µg mL^−1 kanamycin A, 500 µM 83, 24 h of incubation) was “growth did not begin after 24 h of incubation” and the “Toxicity of 83 alone on bacteria” value (P. aeruginosa C0307; up to 500 µM (109 µg mL^−1), no kanamycin A, 24 h) was “no toxicity”. The IC50 (APH(3’)-IIb [2]) was 1230 ± 40 nM, the inhibition at 100 µM (APH(3’)-IIb [3]) was 91% and the IC50 (APH(2”)-IVa [4]) was 840 ± 130 nM. The Kd (APH(2”)-IVa [5]) was 1060 ± 170 nM, the ΔH (APH(2”)-IVa [5]; ITC) was -11.0 kcal/mol and the “Inhibition (%)” value (APH(3’)-Ic) was 35%.
